Measurements as given in EP0481744B1, “Piperazine derivatives” (JOHN WYETH & BROTHER LIMITED, priority 1990, dated 1992).

How the values were obtained:
5HT1A receptor [1] = target: T1, 5HT1A receptor (Rattus norvegicus, UniProt P19327); experiment: 5HT1A receptor antagonism: antagonism of 8-OH DPAT syndrome in the rat; format: in vivo; design: (8-OH DPAT) syndrome in the rat; from tissue; host or cells: whole animal (rat), in vivo; details: antagonism of 8-hydroxy-2-(di-n-propylamino)-tetralin (8-OH DPAT) syndrome in the rat; s.c.
T1 sequence (P19327 1-422): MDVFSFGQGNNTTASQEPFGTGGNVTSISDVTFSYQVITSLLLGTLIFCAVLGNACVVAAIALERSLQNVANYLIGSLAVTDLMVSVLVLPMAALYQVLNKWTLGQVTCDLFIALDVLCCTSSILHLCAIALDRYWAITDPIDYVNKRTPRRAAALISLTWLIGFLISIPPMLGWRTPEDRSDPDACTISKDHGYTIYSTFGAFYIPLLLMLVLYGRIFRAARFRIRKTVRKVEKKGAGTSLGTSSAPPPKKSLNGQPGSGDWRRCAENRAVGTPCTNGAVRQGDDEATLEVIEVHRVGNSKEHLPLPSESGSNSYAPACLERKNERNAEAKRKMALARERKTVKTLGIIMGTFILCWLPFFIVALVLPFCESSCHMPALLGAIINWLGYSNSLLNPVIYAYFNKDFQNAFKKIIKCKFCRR
Method: The compounds were also tested for 5HT1A receptor antagonism activity in a test involving the antagonism of 8-hydroxy-2-(di-n-propylamino)-tetralin (8-OH DPAT) syndrome in the rat. The results are given below

[2] = system: mouse exploratory activity; experiment: Potential anxiolytic activity: mouse exploratory activity in a two-compartment light/dark box; format: in vivo; details: s.c.
Method: The compounds were also tested for potential anxiolytic activity by a test procedure measuring mouse exploratory activity in a two-compartment light/dark box based upon the procedure of B Costall et al, Neuropharmacology, 1987, 26, 195-200 and J.N. Crawley et al, Pharmac. Biochem. Behav. 1980, 13, 167-170. The results are given below

5HT1A receptor [3] = target: T1, 5HT1A receptor; experiment: 5-HT1A receptor binding activity in rat hippocampal membrane homogenate; design: rat hippocampal membrane homogenate; from tissue; host or cells: rat hippocampus (membrane homogenate)
Method: The compounds of the invention were tested for 5-HT1A receptor binding activity in rat hippocampal membrane homogenate by the method of B S Alexander and M D Wood, J Pharm Pharmacol, 1988, 40, 888-891.

COc1ccccc1N1CCN(CC(C(=O)N2CCCCCC2)c2ccccc2)CC1 (stereo not drawn) [Compound B, 2,3,4,5,6,7-hexahydro-1-⁅3-⁅1-[4-(2-methoxyphenyl)piperazinyl]⁆-2-phenylpropionyl⁆-1H-azepine, reference compound]
MED (5HT1A receptor [1]): 0.3 mg/kg; s.c.
MED [2]: 1 mg/kg; s.c.

COc1ccccc1N1CCN(CCC(C(=O)N2CCCCCC2)c2ccccc2)CC1 (stereo not drawn) [Compound A, 2,3,4,5,6,7-hexahydro-1-{4-[1-[4-(2-methoxyphenyl)-piperazinyl]]-2-phenylbutyryl}-1H-azepine]
MED (5HT1A receptor [1]): 0.03 mg/kg; s.c.
IC50 (5HT1A receptor [3]): 3 nM
MED [2]: 0.03 mg/kg; s.c.

COc1ccccc1N1CCN(CCC(C(=O)N2CCCCCC2)c2ccccc2)CC1 (single isomer, unassigned) [Compound C, 2,3,4,5,6,7-Hexahydro-1-⁅4-[1-[4-(2-methoxyphenyl)-piperazinyl]]-2-phenylbutyryl⁆-1H-azepine]
IC50 (5HT1A receptor [3]): 1 nM
